Key:
HS27A = assay: cells; format: cell-based; settings: HS-27A, read-out: IC50 (in vitro toxicity)
MCF7 = assay: In vitro cytotoxicity, MCF7; format: cell-based; settings: Homo sapiens, MCF7, read-out: IC50 (in vitro toxicity)
DBRTG = assay: cells; format: cell-based; settings: read-out: IC50 (in vitro toxicity)
42MGBA = assay: cells; format: cell-based; settings: read-out: IC50 (in vitro toxicity)
KMS34 = assay: cells; format: cell-based; settings: KMS-34, read-out: IC50 (in vitro toxicity)
PC3 = assay: cells; format: cell-based; settings: Homo sapiens, PC-3, read-out: IC50 (in vitro toxicity)
AMO1 = assay: cells; format: cell-based; settings: Homo sapiens, AMO1, read-out: IC50 (in vitro toxicity)
HS5 = assay: cells; format: cell-based; settings: HS5, read-out: IC50 (in vitro toxicity)
RPMI8266 = assay: cells; format: cell-based; settings: RPMI8266, read-out: IC50 (in vitro toxicity)
U266 = assay: cells; format: cell-based; settings: Homo sapiens, U-266, read-out: IC50 (in vitro toxicity)
[1] = test system: LLCPK cells conditionally expressing hLAT1; assay: cells; settings: 0.5 h, read-out: LC50, concentration of test compound at which the percent surviving cells was 50%
HCT116 = assay: In vitro cytotoxicity, HCT116; format: cell-based; settings: Homo sapiens, HCT-116, read-out: IC50 (in vitro toxicity)
L363 = assay: cells; format: cell-based; settings: Homo sapiens, L-363, read-out: IC50 (in vitro toxicity)
D283 = assay: cells; format: cell-based; settings: D283, read-out: IC50 (in vitro toxicity)
[2] = test system: Human prostate cancer PC3 cells; settings: mouse, in vivo
794 = assay: cells; format: cell-based; settings: read-out: IC50 (in vitro toxicity)
KMS11 = assay: cells; format: cell-based; settings: Homo sapiens, KMS-11, read-out: IC50 (in vitro toxicity)
LN229 = assay: cells; format: cell-based; settings: Homo sapiens, LN-229, read-out: IC50 (in vitro toxicity)
hLAT2 = biological target: T1, hLAT2 (Homo sapiens, UniProt Q9UHI5); assay: LAT2 uptake inhibition assay, radiolabeled competition uptake with [3H]-leucine; format: cell-based
T1 construct: expressed in transfected cells; host or cells: KB or LLCPK cells, tetracycline/doxycycline-inducible
T1 sequence (Q9UHI5 1-535): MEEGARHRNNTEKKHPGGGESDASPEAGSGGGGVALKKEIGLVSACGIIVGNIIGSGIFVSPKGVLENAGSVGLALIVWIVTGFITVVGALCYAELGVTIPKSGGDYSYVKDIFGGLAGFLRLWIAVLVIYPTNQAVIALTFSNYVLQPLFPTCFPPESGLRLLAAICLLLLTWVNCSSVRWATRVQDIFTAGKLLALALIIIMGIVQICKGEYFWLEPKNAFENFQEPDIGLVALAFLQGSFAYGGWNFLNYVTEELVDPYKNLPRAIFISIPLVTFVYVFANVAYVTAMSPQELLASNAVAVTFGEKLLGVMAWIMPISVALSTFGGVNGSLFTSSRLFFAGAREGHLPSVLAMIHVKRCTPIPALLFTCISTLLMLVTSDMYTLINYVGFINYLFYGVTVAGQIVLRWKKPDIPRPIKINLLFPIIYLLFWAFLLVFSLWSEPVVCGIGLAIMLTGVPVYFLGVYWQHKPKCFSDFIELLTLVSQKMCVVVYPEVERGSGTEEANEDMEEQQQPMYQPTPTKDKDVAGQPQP
T1 sequence (P08195 1-630 isoform P08195-1 partner): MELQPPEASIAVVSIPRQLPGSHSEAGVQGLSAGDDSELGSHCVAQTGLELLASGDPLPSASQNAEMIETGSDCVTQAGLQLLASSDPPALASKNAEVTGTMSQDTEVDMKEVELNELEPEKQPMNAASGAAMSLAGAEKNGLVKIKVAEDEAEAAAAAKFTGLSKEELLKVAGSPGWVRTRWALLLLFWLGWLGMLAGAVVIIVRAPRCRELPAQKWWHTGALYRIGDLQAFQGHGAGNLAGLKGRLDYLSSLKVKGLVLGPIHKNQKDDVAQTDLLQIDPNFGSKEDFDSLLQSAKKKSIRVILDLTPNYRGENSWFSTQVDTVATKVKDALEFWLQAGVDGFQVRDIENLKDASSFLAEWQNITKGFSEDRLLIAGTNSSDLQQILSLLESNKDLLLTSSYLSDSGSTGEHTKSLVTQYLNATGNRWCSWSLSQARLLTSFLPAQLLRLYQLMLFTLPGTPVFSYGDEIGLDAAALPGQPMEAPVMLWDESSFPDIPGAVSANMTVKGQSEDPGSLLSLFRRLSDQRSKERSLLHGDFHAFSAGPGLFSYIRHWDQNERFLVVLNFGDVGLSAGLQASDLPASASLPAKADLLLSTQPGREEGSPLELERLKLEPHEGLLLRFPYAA

G55 = assay: cells; format: cell-based; settings: read-out: IC50 (in vitro toxicity)
U251 = assay: cells; format: cell-based; settings: Homo sapiens, U-251, read-out: IC50 (in vitro toxicity)
MV411 = assay: cells; format: cell-based; settings: Homo sapiens, MV4-11, read-out: IC50 (in vitro toxicity)
MDA-MB-231 [3] = assay: cells; format: cell-based; settings: Homo sapiens, MDA-MB-231, read-out: IC50 (in vitro toxicity)
Raji = assay: cells; format: cell-based; settings: Homo sapiens, read-out: IC50 (in vitro toxicity)
MM1.S = assay: cells; format: cell-based; settings: Homo sapiens, read-out: IC50 (in vitro toxicity)
hLAT1 = biological target: T2, hLAT1 (Homo sapiens, UniProt Q01650); assay: LAT1 uptake inhibition assay, radiolabeled competition uptake with [3H]-Gabapentin; format: cell-based
T2 construct: expressed in transfected cells; host or cells: LLCPK cells, tetracycline/doxycycline-inducible, boosted with sodium butyrate

MDA-MB-231 [4] = assay: Triple negative breast cancer study, IV dosing; format: in vivo, mouse; settings: IV once a week for 8 weeks
Experimental: The efficacy of compounds provided by the present disclosure was evaluated on a triple negative breast cancer xenograft model—MDA-MB-231. Human triple negative breast cancer cells were implanted into the flank of nude mice and the study was initiated after the volume of the tumors was 150 mm^3. The animals were IV dosed once a week for 8 weeks with either vehicle or 5 mg/kg of compound (5), or 20 mg/kg compound (7). The tumor volume, body weight, white blood cell count, and granulocyte count were determined during the study and 12 days after the final dose was administered.

B16 melanoma cells = assay: In vivo tumor growth suppression, B16 efficacy model; design: species or system mouse; settings: C57BL/6 mice, IP daily for 12 days; test compound 5 mg/kg and 10 mg/kg, melphalan 2.5 mg/kg
[5] = test system: LLCPK cells conditionally expressing hLAT1
[6] = test system: human bone marrow cells (erythroid and myeloid progenitors); assay: In vitro bone marrow toxicity, colony forming cell assays; settings: 14 days in culture, methylcellulose media

T2 sequence (Q01650 whole entry, one chain of several): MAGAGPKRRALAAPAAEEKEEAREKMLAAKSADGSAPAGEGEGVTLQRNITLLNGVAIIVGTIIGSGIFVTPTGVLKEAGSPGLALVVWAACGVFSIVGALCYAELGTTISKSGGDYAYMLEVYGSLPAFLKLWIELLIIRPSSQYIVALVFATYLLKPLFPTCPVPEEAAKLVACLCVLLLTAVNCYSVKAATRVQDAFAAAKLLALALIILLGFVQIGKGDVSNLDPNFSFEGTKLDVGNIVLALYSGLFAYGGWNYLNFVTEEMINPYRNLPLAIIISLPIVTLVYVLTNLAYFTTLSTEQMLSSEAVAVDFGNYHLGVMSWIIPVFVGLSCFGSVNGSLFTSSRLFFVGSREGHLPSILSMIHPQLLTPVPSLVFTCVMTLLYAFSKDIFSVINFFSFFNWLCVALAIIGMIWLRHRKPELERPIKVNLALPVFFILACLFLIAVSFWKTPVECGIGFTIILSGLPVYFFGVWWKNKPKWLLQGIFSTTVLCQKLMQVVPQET

Structure (SMILES) | IC50 (HS27A) [µM] | IC50 (DBRTG) [µM] | IC50 (42MGBA) [µM] | IC50 (KMS34) [µM] | IC50 (PC3) [µM] | IC50 (AMO1) [µM] | IC50 (HS5) [µM] | IC50 (RPMI8266) [µM] | IC50 (U266) [µM] | CC50 [1] [µM] | IC50 (L363) [µM] | IC50 (D283) [µM] | body weight [2] | myelosuppression [2] | tumor growth suppression [2] | IC50 794 [µM] | IC50 (KMS11) [µM] | IC50 (LN229) [µM] | IC50 (hLAT2) [µM] | IC50 (G55) [µM] | other results
COc1ccc(N(CCCl)CCCl)c(C[C@H](N)CC(=O)O)c1 [Compound 51, (3S)-3-amino-4-[2-[bis(2-chloroethyl)amino]-5-methoxy-phenyl]butanoic acid] | > 100 | < 100 | < 100 | < 100 | < 100 | > 100 | > 100 | > 100 | < 100 | < 1 | < 100 | < 100 | maintained weight | not dectected | dose-dependent tumor growth suppression | < 100 | > 100 | < 100 | < 100 | < 100 | IC50 (MCF7): < 100 µM; IC50 (HCT116): < 100 µM; IC50 (U251): < 100 µM; IC50 (MV411): < 100 µM; IC50 (MDA-MB-231 [3]): < 100 µM; IC50 (Raji): < 100 µM; IC50 (MM1.S): < 100 µM
COc1ccc(N(CCCl)CCCl)cc1C[C@H](N)CC(=O)O [Compound 7, (3S)-3-Amino-4-[5-[bis(2-chloroethyl)amino]-2-methoxy-phenyl]butanoic Acid] | > 100 | < 100 | < 100 | > 100 | < 100 | > 100 | > 100 | > 100 | < 100 | < 1 | > 100 | < 100 | maintained weight | not dectected | dose-dependent tumor growth suppression | < 100 | > 100 | < 100 | < 100 | < 100 | IC50 (hLAT1): < 100 µM; body weight (MDA-MB-231 [4]): maintained weight; myelosuppression (MDA-MB-231 [4]): not dectected; tumor growth suppression (MDA-MB-231 [4]; nude mice, 5 mg/kg compound (5), 20 mg/kg compound (7)): dose-dependent tumor growth suppression; IC50 (U251): < 100 µM; IC50 (MV411): < 100 µM; IC50 (MDA-MB-231 [3]): < 100 µM; IC50 (Raji): < 100 µM; IC50 (MM1.S): < 100 µM
N[C@@H](Cc1ccc(N(CCCl)CCCl)cc1)C(=O)O [melphalan, reference compound] | – | – | – | – | – | – | – | – | – | – | – | – | – | – | – | – | – | – | – | – | Tumor Growth (% Control), 5 days post-dosing (B16 melanoma cells): 56 % Control; Tumor Growth (% Control), End of dosing (B16 melanoma cells): 33 % Control; percent surviving cells in cells expressing LAT1 versus cells not expressing LAT1 (in words) [5]: about the same; toxicity to bone marrow progenitor cells (BFU-E, CFU-GM, Total CFC) [6]: more toxic to bone marrow progenitor cells than compound (5)

— patent US10017459B2, “β-substituted β-amino acids and analogs as chemotherapeutic agents and uses thereof” (Quadriga Biosciences, Inc., priority 2015, dated 2018)
